Active and inactive are the calls of the source. No cut-off for these calls is given here.
How the values were obtained:
[1] = system: Human immunodeficiency virus; assay: Antiviral activity was assessed against HIV in MT-4 (human T-helper) cells at a concentration up to 100 ug/mL; inactive; assay type: functional, organism-based
[2] = species on record: Homo sapiens; assay: Cytotoxicity was assessed against in MT-4 (human T-helper) cells at a concentration up to 100 ug/mL; inactive; assay type: functional, cell-based
[3] = system: Human alphaherpesvirus 1; assay: Anti-herpetic activity and cytotoxicity was evaluated against HSV-1 (KOS strain) in plaque reduction assay in vero cells and Flow 2002 (human fibroblast) cell; inactive; assay type: functional, organism-based
[4] = system: Hepatitis B virus; assay: Antiviral activity was assessed against HBV in hepatoma cell line 2.2.15; inactive; assay type: functional, organism-based; conditions: HepG2 2.2.15
[5] = system: Human betaherpesvirus 5; assay: Anti-herpetic activity and cytotoxicity evaluated against HCMV-1 (WFI strain) in plaque reduction assay in vero cells and Flow 2002 (human fibroblast) cell; inactive; assay type: functional, organism-based
[6] = system: Human alphaherpesvirus 2; assay: Anti-herpetic activity and cytotoxicity was evaluated against HSV-2 (186 strain) in plaque reduction assay in vero cells and Flow 2002 (human fibroblast) cell; inactive; assay type: functional, organism-based
[7] = system: Human alphaherpesvirus 1; assay: Anti-herpetic activity and cytotoxicity of compound was evaluated against HSV-1 (KOS strain) at concentration up to 100 ug/mL; inactive; assay type: functional, organism-based
[8] = system: Human alphaherpesvirus 2; assay: Anti-herpetic activity and cytotoxicity of compound was evaluated against HSV-2 (186 strain) at concentration 100 ug/mL; inactive; assay type: functional, organism-based
[9] = system: Human immunodeficiency virus; assay: Cytotoxicity of compound was assessed against HIV in MT-4 (human T-helper) cells; inactive; assay type: functional

SMILES	Activity [1]	Activity [2]	Activity [3]	Activity [4]	Activity [5]	Activity [6]	Activity [7]	Activity [8]	CD50 [9]
Nc1ncnc2c1ncn2O[C@H]1CSC(CO)O1 (stereo not given in full)	inactive	inactive	inactive	inactive	inactive	inactive	–	–	–
COc1ncnc2c1ncn2O[C@@H]1COC(CO)O1 (stereo not given in full)	inactive	inactive	inactive	inactive	inactive	inactive	–	–	–
Nc1nc(O)c2ncn(O[C@@H]3COC(CO)O3)c2n1 (stereo not given in full)	–	–	–	–	–	–	inactive	inactive	–
OCC1O[C@@H](On2cnc3c(Cl)ncnc32)CS1 (stereo not given in full)	inactive	inactive	inactive	inactive	inactive	inactive	–	–	–
COc1ncnc2c1ncn2O[C@@H]1CSC(CO)O1 (stereo not given in full)	inactive	inactive	inactive	inactive	inactive	inactive	–	–	–
Nc1ncnc2c1ncn2O[C@@H]1COC(CO)O1 (stereo not given in full)	inactive	inactive	inactive	inactive	inactive	inactive	–	–	–
Nc1ncnc2c1ncn2O[C@H]1COC(CO)O1 (stereo not given in full)	inactive	inactive	inactive	inactive	inactive	inactive	–	–	–
OCC1OC[C@H](On2cnc3c(O)ncnc32)O1 (stereo not given in full)	inactive	inactive	inactive	inactive	inactive	inactive	–	–	–
Nc1nc(O)c2ncn(O[C@H]3COC(CO)O3)c2n1 (stereo not given in full)	–	–	–	–	–	–	inactive	inactive	–
OCC1O[C@@H](On2cnc3c(O)ncnc32)CS1 (stereo not given in full)	inactive	–	inactive	inactive	inactive	inactive	–	–	10 µg/mL
OCC1O[C@H](On2cnc3c(O)ncnc32)CS1 (stereo not given in full)	inactive	inactive	inactive	inactive	inactive	inactive	–	–	–
OCC1OC[C@H](On2cnc3c(Cl)ncnc32)O1 (stereo not given in full)	inactive	inactive	inactive	inactive	inactive	inactive	–	–	–
OCC1OC[C@@H](On2cnc3c(O)ncnc32)O1 (stereo not given in full)	inactive	inactive	inactive	inactive	inactive	inactive	–	–	–
Nc1ncnc2c1ncn2O[C@@H]1CSC(CO)O1 (stereo not given in full)	inactive	inactive	inactive	inactive	inactive	inactive	–	–	–
OCC1OC[C@@H](On2cnc3c(Cl)ncnc32)O1 (stereo not given in full)	inactive	inactive	inactive	inactive	inactive	inactive	–	–	–
COc1ncnc2c1ncn2O[C@H]1CSC(CO)O1 (stereo not given in full)	inactive	inactive	inactive	inactive	inactive	inactive	–	–	–
COc1ncnc2c1ncn2O[C@H]1COC(CO)O1 (stereo not given in full)	inactive	inactive	inactive	inactive	inactive	inactive	–	–	–
OCC1O[C@H](On2cnc3c(Cl)ncnc32)CS1 (stereo not given in full)	inactive	inactive	inactive	inactive	inactive	inactive	–	–	–
